Measured values from PMC12406258, “Uncovering the Unusual Inhibition Mechanism of a Trypanosome Alternative Oxidase Inhibitor Displaying Broad-Spectrum Activity against African Animal Trypanosomes” (Journal of Medicinal Chemistry, 2025).
Values joined by “and” are separate entries in the source; they are usually repeats but may differ in a detail not shown here. Identical values can stand only once.

Experiments:
T. brucei wild type s427 = assay: Growth curve of T. brucei s427, continuous or 24 h limited exposure; assay type: cell-based; details: 2 × and 5 × EC50
Method: The results in Figure , which show the growth curve of T. brucei wild type s427 grown in the continuous presence or after a limited exposure (24 h) to 1, indicate that the growth pattern of cells with long-time exposure was similar to that of cells with limited exposure to 1. The compound seemed to rapidly induce an apparent growth inhibition, after approximately 4h, followed by a steep decline in population from 30 h. […] Thus, the effects of 1 on trypanosomes are irreversible before population decline begins.
2 Growth curve of T. brucei wild type s427 grown in either the continuous presence of 1 at indicated concentrations (filled symbols) or with the drug washed out with fresh media after 24 h (open symbols; the arrows indicate the time when compound 1 was withdrawn), or untreated (no drug control). The results presented are those of three biological repeats. Error bars represent SD of the biological replicates.

[1] = target: T1, recombinant TAO (ΔMTS rTAO) (Trypanosoma brucei brucei, UniProt Q26710); assay: TAO inhibitory kinetics (Lineweaver–Burk / Dixon plots); assay type: biochemical, T. brucei
T1 construct: […]; SUMO (Small Ubiquitin-related Modifier) fusion from the expression system; made in house
T1 sequence (Q26710 26-329, stated change not applied): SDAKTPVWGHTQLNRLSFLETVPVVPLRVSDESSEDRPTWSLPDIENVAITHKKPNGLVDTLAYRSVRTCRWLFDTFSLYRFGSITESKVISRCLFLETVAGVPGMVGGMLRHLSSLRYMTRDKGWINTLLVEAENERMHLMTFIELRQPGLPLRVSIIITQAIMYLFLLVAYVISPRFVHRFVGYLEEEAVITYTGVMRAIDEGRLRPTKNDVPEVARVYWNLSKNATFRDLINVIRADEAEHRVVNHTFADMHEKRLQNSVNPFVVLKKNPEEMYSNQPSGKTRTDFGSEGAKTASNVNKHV
Method: To determine the type of inhibition with purified TAO, the kinetic assay was carried out in the presence of varying concentrations of 1 and substrate concentrations (Ubiquinol; Q1H2) (0–600 μM), with 250 ng TAO in a 1 mL (0.5 M Tris-HCl buffer, pH 7.3) reaction mix. The results were used to construct the Michaelis–Menten plot, which was then transformed to Lineweaver–Burk plots (Figure A).
The slopes of the Lineweaver–Burk primary plot were plotted against the varying concentrations of 1. K i = −(intercept over the X-axis) of the Dixon secondary plot.
(§1) As previously described, the Ubiquinol oxidase activity measurement was carried out using recombinant TAO lacking the mitochondrial targeting signal (ΔMTS). […] The reaction was carried out in a 1 cm cuvette for 2 min using a V-630 Jasco UV–vis spectrophotometer (Jasco Corporation, Tokyo, Japan). Briefly, the procedure involves preincubating 250 ng of the enzyme for 2 min in a 50 mM Tris-HCl (pH 7.3) buffer containing the detergent octaethylene glycol monododecylether (0.05% (w/v)) in a total reaction volume of 1 mL at 25 °C. […] For the inhibition reaction, 250 ng of the enzyme was preincubated with varying inhibitor concentrations for 2 min using the same buffer before the substrate was added. […] This was achieved using the same protocol but without TAO. […] The residual activities were plotted against the corresponding inhibitor concentration in a GraphPad Prism-9 software to obtain the IC50 value.

[2] = tested on: Human Embryonic Kidney (HEK) 293-T cells; assay: Cytotoxicity assay using Human Embryonic Kidney (HEK) 293 cells
Method: In brief, HEK cells were grown in a culture made of 500 mL Dulbecco’s Modified Eagle’s Medium (DMEM) (Sigma), 50 mL New-born Calf Serum (NBCS) (Gibco), 5 mL L-Glutamax (200 mM, Gibco), and 5 mL Penicillin/ [...

T. equiperdum WT = assay: Resazurin-based drug sensitivity assay, T. equiperdum WT; assay type: cell-based; details: Trypanosoma equiperdum
Method: (§2) Other Trypanosoma species used in this study include T. evansi AntTat 3/3 (Wild-type); and T. equiperdum BoTat 1 (Bordeaux trypanozoon antigenic type 1) P (wild-type). All the trypanosomes were used only as bloodstream trypomastigotes and cultured in the standard Hirumi’s Modified Iscove’s medium #9 (HMI-9), supplemented with 10% heat-inactivated Fetal Bovine Serum (FBS), 14 μL/L β-mercaptoethanol, and 3.0 g sodium hydrogen carbonate per liter of medium (pH 7.4). Trypanosomes were cultured in vented flasks at 37 °C in a 5% CO2 atmosphere.
(§3) Briefly, this protocol involves preparing a 96-well cell culture plate with a 100 μL serially diluted test compound (200 μM top concentration) in HMI-9 + 10% FBS (24 wells per control drug or test compound, with the 24th well serving as drug-free). This is followed by adjusting the cell density of mid-log-phase trypanosome cultures to the required concentration of 2 × 10^5 cells/mL (2 × 10^4 cells/well). […] All incubations were carried out at 37 °C with 5% CO2. […] EC50 values were calculated using GraphPad Prism 9.0 software via nonlinear regression with an equation for a sigmoidal dose–response curve with variable slope (GraphPad Software Inc., San Diego, CA, USA).

[3] = Microsomal stability, mouse liver microsomes; assay type: in vitro ADME; details: female, CD1, mouse, pH 7.4, 0.5 mg/mL microsomes, NADPH
Method: Pooled mixed gender human liver microsomes (HLMs) and Pooled CD1 mouse liver microsomes (female) were purchased from Tebubio. The NADPH regenerating system was purchased from Promega. All other reagents and solvents were of special or analytical grade and were commercially available. The assays were performed according to a reported protocol with small changes. […] The reactions were initiated by adding liver microsomes at a final concentration of 0.5 mg/mL in a total volume of 250 μL. […] The supernatants were analyzed with LC/MS for the amount of parent compound remaining, and the CLint and t 1/2 were determined.

Stability in PBS buffer = details: 37 °C
T. brucei B48 = assay: microbe, parasite or virus in culture; assay type: cell-based, T. b. brucei; details: Trypanosoma brucei, read-out: T. brucei B48 EC50
Method: as §2, §3

T. brucei aqp1-3 null = assay: microbe, parasite or virus in culture; assay type: cell-based, T. b. brucei; details: Trypanosoma brucei, read-out: aqp1-3 null EC50
Method: as §2, §3

[4] = target: T1, recombinant TAO (ΔMTS rTAO); assay: Inhibition of ubiquinol oxidase activity of purified recombinant TAO; assay type: biochemical, T. brucei
Method: This physiologically relevant rTAO enzyme was used throughout this work and in this experiment to study the inhibitory activity of 1.
as §1

Compound: Cc1cc(O)ccc1C(=O)OCCCCCCCCCCCCCC[P+](c1ccccc1)(c1ccccc1)c1ccccn1.[Br-] [Compound 1, {14-[(4-Hydroxy-2-methylbenzoyl)-oxy]-tetradecyl}-diphenyl(pyridin-2-yl)-Phosphonium Bromide]
- Time from which population steeply declines (T. brucei wild type s427): ≥ 30 h
- Time to apparent growth inhibition (T. brucei wild type s427): approximately 4 h
- Ki [1]: 3.46 nM
- Vmax of TAO in the presence of inhibitor ([1]; 5 nM inhibitor): 34.7 µmol/min/mg
- Vmax of TAO in the presence of inhibitor ([1]; 10 nM inhibitor): 21.4 µmol/min/mg
- Vmax of TAO in the presence of inhibitor ([1]; 15 nM inhibitor): 13.0 µmol/min/mg
- Type of inhibition of TAO ([1]; Lineweaver–Burk plot): noncompetitive
- SI (selectivity index) for T. congolense [2]: 182
- HEK EC50 (CC50, cytotoxicity) ([2]; HEK 293-T cells, n = 3): 7490 nM and 7490 ± 100 nM
- HEK SI (selectivity index) ([2]; SI = CC50 of HEK/EC50 of T. b. b WT (no glycerol)): 2385
- EC50 (T. equiperdum WT): 2.2 ± 0.2 nM
- microsomal CLint at 1 μM ([3]; read-out: CLint,met in mouse microsomes): 293 ± 19 µL/min/mg
- half-life at 1 μM ([3]; read-out: t1/2 in mouse microsomes): 4.6 min
- Stability in PBS buffer (Stability in PBS buffer): ≥ 1 h
- EC50 (T. brucei B48): 2.5 ± 0.1 nM
- EC50 (T. brucei aqp1-3 null): 1.2 ± 0.13 nM
- IC50 [4]: 1.3 ± 0.07 nM
